Results published in patent publication US7247634B2, “Rifamycin derivatives effective against drug-resistant microbes” (Cumbre Pharmaceuticals Inc., priority 2004, dated 2007).
≈ marks a conversion by molar mass, not a printed value.

Key:
Assay type in all cases: cell-based
[1] = tested on: Streptococcus pyogenes ATCC19615; assay: MIC, microbroth dilution (NCCLS); settings: rifS strain, THY Broth, 37° C., read-out: Antimicrobial activity (MIC)
[2] = tested on: Haemophilus influenzae ATCC10211; assay: MIC, microbroth dilution (NCCLS); settings: rifS strain, BHI Broth with NAD and hematin, 37° C., read-out: Antimicrobial activity (MIC)
[3] = tested on: Staphylococcus aureus ATCC29213; assay: MIC, microbroth dilution (NCCLS); settings: rifS strain, Cation-Adjusted Mueller-Hinton Broth, 37° C., read-out: Antimicrobial activity (MIC)
[4] = tested on: Streptococcus pneumoniae ATCC6303; assay: MIC, microbroth dilution (NCCLS); settings: rifS strain, THY Broth with 1 mg/mL catalase, 5% CO2, 37° C., read-out: Antimicrobial activity (MIC)
[5] = tested on: Enterococcus faecalis ATCC29212; assay: MIC, microbroth dilution (NCCLS); settings: rifS strain, BHI Broth, 37° C., read-out: Antimicrobial activity (MIC)
[6] = tested on: Mycobacterium smegmatis ATCC700084; assay: MIC, microbroth dilution (NCCLS); settings: Mycolicibacterium smegmatis, rifS strain, Middlebrook Broth plus ADC Enrichment, 37° C., read-out: Antimicrobial activity (MIC)
[7] = tested on: Staphylococcus aureus EN1252a gyrA^S84L grlA^S80F; assay: microbe, parasite or virus in culture; settings: read-out: Antimicrobial activity (MIC)
Description: (§1) Representative compounds were assayed for antimicrobial activity as follows: Minimum Inhibitory Concentrations (“MICs”) were determined by the microbroth dilution method as per NCCLS guidelines (National Committee for Clinical Laboratory Standards. 2000. Methods for dilution antimicrobial susceptibility tests for bacteria that grow aerobically, 5th ed. M7-A5. National Committee for Clinical Laboratory Standards, Wayne, Pa.), except that all growth incubations were conducted at 37° C. Bacterial cultures were tested in the following bacteriological media: S. aureus, S. epidermidis, and E. coli in Cation-Adjusted Mueller-Hinton Broth, S. pneumoniae in THY Broth supplemented with 1 mg/mL catalase under 5% CO2 atmosphere, S. pyogenes in THY Broth, E. faecalis in BHI Broth, H. influenzae in BHI Broth supplemented with 0.75 μL of 1 mg/mL NAD and 150 μL of 1 mg/ml hematin per 5 mL, and M. smegmatis in Middlebrook Broth plus ADC Enrichment.
(§2) S. aureus ATCC 29213 RpoB^H418Y is a rifampin-resistant strain with a mutation in RNA polymerase, the biological target of rifamycin antibiotics. […] S. aureus EN1252a gyrA^S84L grlA^S80F is a quinolone-resistant strain due to double mutations to DNA gyrase and topoisomerase IV, the two biological targets for quinolone antibiotics.

[8] = tested on: Staphylococcus aureus ATCC29213 rpoB^D417Y; assay: microbe, parasite or virus in culture; settings: ATCC29213, read-out: Antimicrobial activity (MIC)
Description: as §1, §2

[9] = tested on: Staphylococcus aureus ATCC29213 rpoB^H418Y; assay: microbe, parasite or virus in culture; settings: ATCC29213, read-out: Antimicrobial activity (MIC)
Description: as §1, §2

[10] = tested on: Staphylococcus epidermidis ATCC12228; assay: MIC, microbroth dilution (NCCLS); settings: rifS strain, Cation-Adjusted Mueller-Hinton Broth, 37° C., read-out: Antimicrobial activity (MIC)
[11] = tested on: Escherichia coli ATCC25922; assay: MIC, microbroth dilution (NCCLS); settings: rifS strain, Cation-Adjusted Mueller-Hinton Broth, 37° C., read-out: Antimicrobial activity (MIC)

SMILES	MIC [1] [µg/mL]	MIC [2] [µg/mL]	MIC [3] [µg/mL]	MIC [4] [µg/mL]	MIC [5] [µg/mL]	MIC [6] [µg/mL]	MIC [7] [µg/mL]	MIC [8] [µg/mL]	MIC [9] [µg/mL]	MIC [10] [µg/mL]	MIC [11] [µg/mL]
COc1c(N2CCCC(NC(=O)C3CCN(C4=C5NC(=O)/C(C)=C\C=C\[C@H](C)[C@H](O)[C@@H](C)[C@@H](O)[C@@H](C)[C@H](OC(C)=O)[C@H](C)[C@@H](OC)/C=C/O[C@@]6(C)Oc7c(C)c(O)c(c(c7C6=O)C4=O)C5=O)CC3)C2)c(F)cc2c(=O)c(C(=O)O)cn(C3CC3)c12 (mixture of isomers) [Example 52]	0.008 to 0.063 (≈ 0.00678 to 0.0534 µM)	0.125 to 2 (≈ 0.106 to 1.69 µM)	0.004 to 0.5 (≈ 0.00339 to 0.424 µM)	0.008 to 0.125 (≈ 0.00678 to 0.106 µM)	2 to 32 (≈ 1.69 to 27.1 µM)	0.5 to 64	0.004 to 0.5 (≈ 0.00339 to 0.424 µM)	0.06 to 32 (≈ 0.0508 to 27.1 µM)	0.06 to 16 (≈ 0.0508 to 13.6 µM)	0.008 to 0.063 (≈ 0.00678 to 0.0534 µM)	0.125 to 8 (≈ 0.106 to 6.78 µM)
CO[C@H]1/C=C/O[C@@]2(C)Oc3c(C)c(O)c4c(c3C2=O)C(=O)C(N2CCN(C3CCN(c5nc6c(cc5F)c(=O)c(C(=O)O)cn6-c5ccc(F)cc5F)C3)CC2)=C(NC(=O)/C(C)=C\C=C\[C@H](C)[C@H](O)[C@@H](C)[C@@H](O)[C@@H](C)[C@H](OC(C)=O)[C@@H]1C)C4=O (mixture of isomers) [Example 54]	0.008 to 0.063 (≈ 0.00685 to 0.054 µM)	0.125 to 2 (≈ 0.107 to 1.71 µM)	0.004 to 0.5 (≈ 0.00343 to 0.428 µM)	0.008 to 0.125 (≈ 0.00685 to 0.107 µM)	2 to 32 (≈ 1.71 to 27.4 µM)	0.5 to 64	0.004 to 0.5 (≈ 0.00343 to 0.428 µM)	0.06 to 32 (≈ 0.0514 to 27.4 µM)	0.06 to 16 (≈ 0.0514 to 13.7 µM)	0.008 to 0.063 (≈ 0.00685 to 0.054 µM)	0.125 to 8 (≈ 0.107 to 6.85 µM)
COc1c(N2CCC(C3(N4CCN(C5=C6NC(=O)/C(C)=C\C=C\[C@H](C)[C@H](O)[C@@H](C)[C@@H](O)[C@@H](C)[C@H](OC(C)=O)[C@H](C)[C@@H](OC)/C=C/O[C@@]7(C)Oc8c(C)c(O)c(c(c8C7=O)C5=O)C6=O)CC4)CC3)C2)c(F)cc2c(=O)c(C(=O)O)cn(C3CC3)c12 (mixture of isomers) [Example 56, (R/S)-3-{4-[1-(3-Carboxy-1-cyclopropyl-6-fluoro-8-methoxy-4-oxo-1,4-dihydroquinoline-7-yl)-pyrrolidin-3-yl-cyclopropyl]-piperazin-1-yl}-rifamycin S]	0.008 to 0.063 (≈ 0.00687 to 0.0541 µM)	0.125 to 2 (≈ 0.107 to 1.72 µM)	0.004 to 0.5 (≈ 0.00344 to 0.429 µM)	0.008 to 0.125 (≈ 0.00687 to 0.107 µM)	2 to 32 (≈ 1.72 to 27.5 µM)	0.5 to 64	0.004 to 0.5 (≈ 0.00344 to 0.429 µM)	0.06 to 32 (≈ 0.0515 to 27.5 µM)	0.06 to 16 (≈ 0.0515 to 13.7 µM)	0.008 to 0.063 (≈ 0.00687 to 0.0541 µM)	0.125 to 8 (≈ 0.107 to 6.87 µM)
CO[C@H]1/C=C/O[C@@]2(C)Oc3c(C)c(O)c4c(c3C2=O)C(=O)C(N2CCC(N(C)C3(C5CCN(c6nc7c(cc6F)c(=O)c(C(=O)O)cn7-c6ccc(F)cc6F)C5)CC3)CC2)=C(NC(=O)/C(C)=C\C=C\[C@H](C)[C@H](O)[C@@H](C)[C@@H](O)[C@@H](C)[C@H](OC(C)=O)[C@@H]1C)C4=O (mixture of isomers) [Example 58]	0.008 to 0.063 (≈ 0.00648 to 0.051 µM)	0.125 to 2 (≈ 0.101 to 1.62 µM)	0.004 to 0.5 (≈ 0.00324 to 0.405 µM)	0.008 to 0.125 (≈ 0.00648 to 0.101 µM)	2 to 32 (≈ 1.62 to 25.9 µM)	0.5 to 64	0.004 to 0.5 (≈ 0.00324 to 0.405 µM)	0.06 to 32 (≈ 0.0486 to 25.9 µM)	0.06 to 16 (≈ 0.0486 to 13 µM)	0.008 to 0.063 (≈ 0.00648 to 0.051 µM)	0.125 to 8 (≈ 0.101 to 6.48 µM)
CON=C1CN(c2nc3c(cc2F)c(=O)c(C(=O)O)cn3C2CC2)CC1CNC1CCN(C2=C3NC(=O)/C(C)=C\C=C\[C@H](C)[C@H](O)[C@@H](C)[C@@H](O)[C@@H](C)[C@H](OC(C)=O)[C@H](C)[C@@H](OC)/C=C/O[C@@]4(C)Oc5c(C)c(O)c(c(c5C4=O)C2=O)C3=O)CC1 (mixture of isomers) [Example 59, (R/S)-3-{4-[1-(3-Carboxy-1-cyclopropyl-6-fluoro-4-oxo-1,4-dihydro-1-[1,8]naphthyridine-7-yl)-3-methoxyiminopyrrolidin-4-ylmethylamino]-piperidin-1-yl}rifamycin S]	0.008 to 0.063 (≈ 0.00686 to 0.054 µM)	0.125 to 2 (≈ 0.107 to 1.71 µM)	0.004 to 0.5 (≈ 0.00343 to 0.429 µM)	0.008 to 0.125 (≈ 0.00686 to 0.107 µM)	2 to 32 (≈ 1.71 to 27.4 µM)	0.5 to 64	0.004 to 0.5 (≈ 0.00343 to 0.429 µM)	0.06 to 32 (≈ 0.0514 to 27.4 µM)	0.06 to 16 (≈ 0.0514 to 13.7 µM)	0.008 to 0.063 (≈ 0.00686 to 0.054 µM)	0.125 to 8 (≈ 0.107 to 6.86 µM)
CO[C@H]1/C=C/O[C@@]2(C)Oc3c(C)c(O)c4c(c3C2=O)C(=O)C(N2CCN(c3cc5c(cc3F)c(=O)c(C(=O)O)cn5C3CC3)CC2)=C(NC(=O)/C(C)=C\C=C\[C@H](C)[C@H](O)[C@@H](C)[C@@H](O)[C@@H](C)[C@H](OC(C)=O)[C@@H]1C)C4=O [Example 4, 3-[4-(3-Carboxy-1-cyclopropyl-6-fluoro-4-oxo-1,4-dihydroquinolin-7-yl)piperazin-1-yl]rifamycin S]	0.008 to 0.063 (≈ 0.0078 to 0.0615 µM)	0.125 to 2 (≈ 0.122 to 1.95 µM)	0.004 to 0.5 (≈ 0.0039 to 0.488 µM)	0.008 to 0.125 (≈ 0.0078 to 0.122 µM)	2 to 32 (≈ 1.95 to 31.2 µM)	0.5 to 64	0.004 to 0.5 (≈ 0.0039 to 0.488 µM)	0.06 to 32 (≈ 0.0585 to 31.2 µM)	0.06 to 16 (≈ 0.0585 to 15.6 µM)	0.008 to 0.063 (≈ 0.0078 to 0.0615 µM)	0.125 to 8 (≈ 0.122 to 7.8 µM)
